Data on two compounds can be found in US20100272710A1, “COMPOSITIONS AND METHODS FOR TREATING AND PREVENTING AGING-ASSOCIATED DISEASES” (priority 2009, published 2010).

Each structure is given as a SMILES string. Like-named read-outs stand apart in the source and are kept apart here.

The subject of test [1] is TXNIP. Briefly: Western blot of TXNIP expression in cancer cells (SaOS2, RGC). In kind it is cell-based. The following applies: for expression of TXNIP: increasing concentrations, Western blot. How it is done: (§1) SaOS2 cells were incubated in the presence of reduced glucose levels in the culture medium for 48 hours. Expression of TXNIP and Sirt1 were determined by Western blot using specific antibodies. Antibody to _-Actin was used as a loading control.
(§2) The RGC (4C) and SaOS2 (4D) cells were subjected to treatment with increasing concentrations of resveratrol (Resv.) for 48 hours followed by Western blot as described in Panel A.
(§3) SaOS2 cells were treated with increasing amounts of DHEA and probed for expression of Sirt1 and TXNIP; beta-actin was used as a loading control.
The cells were treated with different concentrations of glucose with or without DHEA. After 48 hours in cultures, proteins were separated by electrophoresis and probed for TXNIP. Staining with beta-actin antibody was used as a loading control.
(§4) The effects of limited glucose availability (used here to mimic the effect of calorie restriction), resveratrol (an activator of Sirt1) and DHEA (used for hormone replacement therapy), on the expression of TXNIP and Sirt1 were determined by Western blot using specific antibodies to the corresponding proteins (FIG. 4).

Test [2] concerns Sirt1. Format: cell-based. As to conditions: increasing concentrations, Western blot. The protocol:
as §1, §2, §3, §4
In general terms: A western blot detects proteins with antibodies after separation by electrophoresis.

Test [3] has as its system TXNIP. Briefly: Western blot of TXNIP expression in aortic smooth muscle cells. In kind it is cell-based. The protocol:
(§5) Effects of limited glucose availability, resveratrol and DHEA on expression of TXNIP and Sirt1 in normal cells. Aortic smooth muscle cells (4A) and human embryonic stem cells (4B) were treated as described in FIG. 1 for cancer cells. Expression Sirt1 and TXNIP were analyzed by Western blot using specific antibodies. Antibody to GAPDH was used as loading control. (Glc: glucose; Resv: Resveratrol).
(§6) In order to obtain information on the physiological relevance of targeting Sirt1 and TXNIP in normal tissues, we investigated the effect of limited glucose availability, resveratrol and DHEA in differentiated aortic smooth muscle cells, and non-differentiated, human embryonic stem cells.

Test [4] has as its system Sirt1. In kind it is cell-based. The following applies: aortic smooth muscle cells, Western blot. How it is done:
as §5, §6

Test [5] relates to TXNIP. Nature of the test: Western blot of TXNIP expression in human embryonic stem cells BG01V. Format: cell-based. How it is done: as §5
(§7) To test whether cellular proliferative capacity may account for this difference, we measured expression of Sirt1 and TXNIP in embryonic stem cells known for rapid self renewal ability. The human embryonic stem cells, BG01V, were subjected to glucose restriction or treatment with either resveratrol or DHEA under similar conditions to those described in FIG. 4. […] In contrast, the consistent inhibition of TXNIP by limited glucose availability in cancer cells as well as in differentiated smooth muscle cells and non-differentiated stem cells, is indicative of a potential role of this gene in mediating the anti-aging action of calorie restriction.

For test [6], the system named is Sirt1. Briefly: Western blot of Sirt1 expression in human embryonic stem cells BG01V. In kind it is cell-based. The protocol:
as §5, §7

The subject of test [7] is TXNIP. Briefly: TXNIP expression in organs of treated mice (Western blot). Format: in vivo. As to conditions: CD1 mice, 10 mg/Kg i.p., 2 days. How it is done:
(§8) Tissue distribution of Sirt1 and TXNIP in mice and their regulation by resveratrol and DHEA. Mice CD1 strain were injected (i.p.) with 10 mg/Kg of either resveratrol or DHEA and after 2 days, the animals were sacrificed and organs harvested and processed by Western blot for the expression of Sirt1 and TXNIP. Staining with GAPDH was used as a loading control.
(§9) In order to determine whether the observed effects in vitro could be also valid in vivo, we have subjected the nude mice (CD1 strain, Charles River) to treatment with either resveratrol or DHEA (10 mg/Kg each) for 2 days. The animals were then sacrificed and major organs harvested to analyze expression of Sirt1 and TXNIP by Western blot.

The test system of test [8] is Sirt1. Briefly: Sirt1 expression in organs of treated mice (Western blot). In kind it is in vivo. As to conditions: CD1 mice, 10 mg/Kg i.p., 2 days. How it is done: as §8, §9
The subject of test [9] is AMPK. Nature of the test: Phosphorylation of AMPK in cells (Western blot, anti-phospho-AMPK Thr172). Format: cell-based. As to conditions: for AMPK phosphorylation: osteosarcoma cells SaOS2, 48 hours. The protocol:
SaOS2 cells were treated with increasing concentrations of resveratrol for 48 hours, after what, proteins were extracted and probed either with anti-phospho-AMPK (Thr172), or with antibody to AMPK.
RGC cells were incubated with 20 or 100 μM resveratrol or DHEA 100 μM for 48 hours, and then probed for phosphor-AMPK and AMPK as described above.
However, the relevance of this action to the regulation of TXNIP by resveratrol and the possible implication of DHEA in regulating this pathway are not yet investigated. […] Further confirmation of this link will help establish TXNIP inhibition as an important determinant for evaluating the efficacy of putative anti-aging interventions.

The target of test [10] is glucose 6 phosphate dehydrogenase, G6PD (Homo sapiens, UniProt P11413). Nature of the test: G6PD activity in protein extract (NADPH production). As to conditions: 30 min at 37° C.; for activity of G6PD: protein extract 100 ug.
Sequence of glucose 6 phosphate dehydrogenase, G6PD (P11413 whole entry): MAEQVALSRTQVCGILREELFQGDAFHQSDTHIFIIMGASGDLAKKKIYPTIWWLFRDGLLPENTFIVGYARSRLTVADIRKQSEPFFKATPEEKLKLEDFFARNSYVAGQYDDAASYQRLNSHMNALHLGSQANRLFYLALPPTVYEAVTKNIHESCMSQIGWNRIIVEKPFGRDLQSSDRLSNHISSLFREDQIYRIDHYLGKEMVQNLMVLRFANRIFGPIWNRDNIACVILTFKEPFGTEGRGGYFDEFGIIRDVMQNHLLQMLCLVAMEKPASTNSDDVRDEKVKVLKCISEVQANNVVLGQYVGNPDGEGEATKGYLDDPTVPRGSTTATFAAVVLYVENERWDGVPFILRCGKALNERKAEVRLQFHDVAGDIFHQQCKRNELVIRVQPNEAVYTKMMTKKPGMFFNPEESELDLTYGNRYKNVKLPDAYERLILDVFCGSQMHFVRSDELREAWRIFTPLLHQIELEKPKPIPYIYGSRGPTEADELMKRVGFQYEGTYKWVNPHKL
Experimental: Protein extract (100 _g) was incubated with DHEA or resveratrol at the indicated concentrations, after 30 min at 37° C., the activity of G6PD was measured as described in the methods section.
Where [11] appears, read: retinal glial cells (RGC), 48 hours.

For `C[C@]12CC[C@H](O)CC1=CC[C@@H]1[C@@H]2CC[C@]2(C)C(=O)CC[C@@H]12` [DHEA, dehydroepiandrosterone], the entries for the “expression of TXNIP” value in test [1] (SaOS2 cells), in test [3] and in test [5] were “decreased expression”, “without effect” and “none of these genes was affected”, respectively. Moreover, the “effects of glucose on TXNIP expression after pre-treatment” value in test [1] (cells with different concentrations of glucose with or without DHEA, 48 hours) is given as “almost completely blocked”. Further, the “expression of Sirt1” value in [2] (SaOS2 cells) was “decreased expression”; in [4], “without effect”; in test [6] it was “none of these genes was affected”. The “expression of TXNIP in the lung” value in [7] is “inhibited the expression”. For the same compound, the “expression of TXNIP in the muscle” value in [7] is reported as “inhibitory effect”. In [8], the “expression of Sirt1 in most tissues” value is reported as “not significantly affect”. The AMPK phosphorylation result in test [9] is reported as “without effect”. Also, the “activity of G6PD” value in test [10] was “strongly inhibited and in a dose dependent manner”. Besides, the “inhibitory effect on G6PD observed” value in test [10] (protein extract, assay based on production of NADPH) turned out to be 50%.
On to `Oc1ccc(C=Cc2cc(O)cc(O)c2)cc1` [resveratrol], for which the “expression of TXNIP” value was “stimulatory action at low concentrations and inhibition at higher ones” in test [1] (RGC cells, 48 hours); “stimulatory action at low concentrations and inhibition at higher ones” in test [1] (SaOS2 cells); “inhibited the expression of TXNIP in a dose dependent manner” in test [3]; “none of these genes was affected” in test [5]. Further, the “expression of Sirt1” value in test [2] (RGC cells, 48 hours) is “suppressed the expression”; in test [2] (SaOS2 cells), “suppressed the expression”; in [4], “no significant changes in Sirt1 expression”; in [6] it was “none of these genes was affected”. For the same compound, the “expression of TXNIP in the lung” value in test [7] is reported as “inhibited the expression”. Moreover, in test [7], the “expression of TXNIP in the muscle” value is on record as “only DHEA had an inhibitory effect in the muscle”. Besides, in test [8], the “expression of Sirt1 in most tissues” value is on record as “not significantly affect”. Also, the AMPK phosphorylation result in test [9] was “induced AMPK phosphorylation”. Besides, the “AMPK phosphorylation (p-AMPK)” value in test [9] (setting [11]) was “readily activates”. Moreover, the “expression of AMPK” value in [9] (setting [11]) was “without affecting expression”. Further, the “activity of G6PD” value in [10] was “no effect”.
